{"source": "patent US11427548B2", "about": "(Arvinas Operations, Inc., priority 2015, dated 2022)", "target": "T1, Androgen Receptor (Homo sapiens, UniProt P10275)", "T1 construct": "endogenous in cells; host or cells: VCaP cells", "T1 sequence (P10275 1-920)": "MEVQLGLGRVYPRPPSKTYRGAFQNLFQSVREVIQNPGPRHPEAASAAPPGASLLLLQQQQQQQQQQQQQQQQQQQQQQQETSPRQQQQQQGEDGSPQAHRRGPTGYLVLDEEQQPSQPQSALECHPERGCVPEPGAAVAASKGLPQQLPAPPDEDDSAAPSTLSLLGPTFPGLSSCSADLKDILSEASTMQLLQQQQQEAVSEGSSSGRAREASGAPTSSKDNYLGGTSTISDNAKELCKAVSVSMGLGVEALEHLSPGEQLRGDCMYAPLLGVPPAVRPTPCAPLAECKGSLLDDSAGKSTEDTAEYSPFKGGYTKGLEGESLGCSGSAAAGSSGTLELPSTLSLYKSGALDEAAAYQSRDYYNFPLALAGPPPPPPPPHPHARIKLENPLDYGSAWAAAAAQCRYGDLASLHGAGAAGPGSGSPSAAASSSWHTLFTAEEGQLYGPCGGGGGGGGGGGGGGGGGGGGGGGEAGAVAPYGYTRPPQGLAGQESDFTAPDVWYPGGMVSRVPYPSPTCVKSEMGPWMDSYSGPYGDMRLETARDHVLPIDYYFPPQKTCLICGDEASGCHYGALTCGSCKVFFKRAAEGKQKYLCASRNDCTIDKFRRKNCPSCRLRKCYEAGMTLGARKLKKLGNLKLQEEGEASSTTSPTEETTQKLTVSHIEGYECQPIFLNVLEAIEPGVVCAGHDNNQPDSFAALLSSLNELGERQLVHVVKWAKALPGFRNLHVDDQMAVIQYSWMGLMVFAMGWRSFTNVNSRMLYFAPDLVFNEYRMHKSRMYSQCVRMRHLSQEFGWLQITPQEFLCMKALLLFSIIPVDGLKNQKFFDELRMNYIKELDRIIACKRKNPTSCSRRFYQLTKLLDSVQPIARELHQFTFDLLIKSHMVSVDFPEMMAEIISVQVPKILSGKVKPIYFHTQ", "experiment": "Androgen Receptor ELISA assay (PathScan AR ELISA) in VCaP cells: AR degradation, Dmax and DC50", "assay_type": "cell-based", "procedure,_shortened": "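VCaP cells in phenol red-free RPMI with 5% charcoal-stripped FBS were grown at least 3 days, then given compound as 7 half-log doses in 0.1% DMSO with 0.1 nM R1881 for 24 h. Lysates went into a sandwich AR ELISA with TMB read at 450 nm.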", "key": {"[1]": {"details": "VCaP, VCaP cells; Table 35; read-out: VCaP Dmax (%)"}, "[2]": {"details": "VCaP cells; Table 36; read-out: VCaP DC50"}, "[3]": {"details": "VCaP, VCaP cells; Table 36; read-out: VCaP Dmax (%)"}, "[4]": {"details": "VCaP cells; Table 35; read-out: VCaP DC50"}}, "note": "Where two headings read alike, the source gives them in different places.", "data": [{"smiles": "Cc1ncsc1-c1ccc(CNC(=O)[C@@H]2C[C@@H](O)CN2C(=O)[C@@H](NC(=O)COCCCOCCCCCOc2ccc(N3C(=S)N(c4ccccc4)C(=O)C3(C)C)cc2)C(C)(C)C)cc1", "note": "[Example 477]", "values": [{"measurement": "Dmax", "setting": "[1]", "value": "< 25", "unit": "%"}]}, {"smiles": "COc1cc(N2C(=O)C(C)(C)N(c3ccc(-c4ccc(OCCCCOCC(=O)N[C@H](C(=O)N5C[C@H](O)C[C@H]5C(=O)NCc5ccc(-c6ocnc6C)cc5)C(C)(C)C)cc4)cc3)C2=S)ccc1C#N", "note": "[Example 115, (2S,4R)-1-[(2S)-2-{2-[4-(4-{4-[3-(4-cyano-3-methoxyphenyl)-5,5-dimethyl-4-oxo-2-sulfanylideneimidazolidin-1-yl]phenyl}phenoxy)butoxy]acetamido}-3,3-dimethylbutanoyl]-4-hydroxy-N-{[4-(4-methyl-1,3-oxazol-5-yl)phenyl]methyl}pyrrolidine-2-carboxamide]", "values": [{"measurement": "Dmax", "setting": "VCaP, highest percentage of Androgen Receptor degradation observed, VCaP cells (Table 32); read-out: VCaP Dmax (%)", "value": "> 71", "unit": "%"}, {"measurement": "DC50", "setting": "concentration that caused 50% Androgen Receptor degradation, VCaP cells (Table 32); read-out: VCaP DC50", "value": "< 0.05", "unit": "µM"}]}, {"smiles": "Cc1ncsc1-c1ccc([C@H](C)NC(=O)[C@@H]2C[C@@H](O)CN2C(=O)[C@@H](NC(=O)CN[C@H]2C[C@H](OC3CCN(c4ccc(C(=O)N[C@H]5C(C)(C)[C@H](Oc6ccc(C#N)c(Cl)c6)C5(C)C)cn4)CC3)C2)C(C)(C)C)cc1", "note": "[Example 832, N-((1r,3r)-3-(3-chloro-4-cyanophenoxy)-2,2,4,4-tetramethylcyclobutyl)-6-(4-((1S,3r)-3-((2-(((S)-1-((2S,4R)-4-hydroxy-2-(((S)-1-(4-(4-methylthiazol-5-yl)phenyl)ethyl)carbamoyl)pyrrolidin-1-yl)-3,3-dimethyl-1-oxobutan-2-yl)amino)-2-oxoethyl)amino)cyclobutoxy)piperidin-1-yl)nicotinamide]", "values": [{"measurement": "DC50", "setting": "[2]", "value": "< 0.05", "unit": "µM"}, {"measurement": "Dmax", "setting": "VCaP, read-out: VCaP Dmax (%)", "value": "> 71", "unit": "%"}]}, {"smiles": "Cc1ncsc1-c1ccc([C@H](CO)NC(=O)[C@@H]2C[C@@H](O)CN2C(=O)[C@@H](NC(=O)COCCN2CCN(c3ccc(C(=O)N[C@H]4C(C)(C)[C@H](Oc5ccc(C#N)c(Cl)c5)C4(C)C)cn3)CC2)C(C)(C)C)cc1", "note": "[Example 812, N-((1r,3r)-3-(3-chloro-4-cyanophenoxy)-2,2,4,4-tetramethylcyclobutyl)-6-(4-(2-(2-(((S)-1-((2S, 4R)-4-hydroxy-2-(((R)-2-hydroxy-1-(4-(4-methylthiazol-5-yl)phenyl)ethyl)carbamoyl)pyrrolidin-1-yl)-3,3-dimethyl-1-oxobutan-2-yl)amino)-2-oxoethoxy)ethyl)piperazin-1-yl) nicotinamide]", "values": [{"measurement": "DC50", "setting": "[2]", "value": "< 0.05", "unit": "µM"}, {"measurement": "Dmax", "setting": "[3]", "value": "> 71", "unit": "%"}]}, {"smiles": "Cc1ncsc1-c1ccc([C@H](C)NC(=O)[C@@H]2C[C@@H](O)CN2C(=O)[C@@H](NC(=O)COCCN2CCN(c3ccc(C(=O)N[C@H]4C(C)(C)[C@H](Oc5ccc(C#N)c(C(F)(F)F)c5)C4(C)C)nn3)CC2)C(C)(C)C)cc1", "note": "[Example 684, N-((1r,3r)-3-(4-cyano-3-(trifluoromethyl)phenoxy)-2,2,4,4-tetramethylcyclobutyl)-6-(4-(2-(2-(((S)-1-((2S,4R)-4-hydroxy-2-(((S)-1-(4-(4-methylthiazol-5-yl)phenyl)ethyl)carbam-oyl)pyrrolidin-1-yl)-3,3-dimethyl-1-oxobutan-2-yl)amino)-2-oxoethoxy)ethyl)pipera-zin-1-yl)pyridazine-3-carboxamide]", "values": [{"measurement": "DC50", "setting": "[2]", "value": "< 0.05", "unit": "µM"}, {"measurement": "Dmax", "setting": "[3]", "value": "51 to 70", "unit": "%"}]}, {"smiles": "Cc1ncsc1-c1ccc(CNC(=O)[C@@H]2C[C@@H](O)CN2C(=O)[C@H](C(C)C)N2Cc3ccc(N4CCN(CCCc5ccc(C(=O)N[C@H]6C(C)(C)[C@H](Oc7ccc(C#N)c(Cl)c7)C6(C)C)cc5)CC4)cc3C2=O)cc1", "note": "[Example 774, (2S,4R)-1-((S)-2-(6-(4-(3-(4-(((1r,3r)-3-(3-chloro-4-cyanophenoxy)-2,2,4,4-tetramethylcyclobutyl)carbamoyl)phenyl)propyl)piperazin-1-yl)-1-oxoisoindolin-2-yl)-3-methylbutanoyl)-4-hydroxy-N-(4-(4-methylthiazol-5-yl)benzyl)pyrrolidine-2-carboxamide]", "values": [{"measurement": "DC50", "setting": "[2]", "value": "> 0.501", "unit": "µM"}, {"measurement": "Dmax", "setting": "[3]", "value": "< 25", "unit": "%"}]}, {"smiles": "Cc1ncoc1-c1ccc(CNC(=O)[C@@H]2C[C@@H](O)CN2C(=O)[C@@H](NC(=O)COCCCNC(=O)c2ccc(-c3ccc(N4C(=S)N(c5ccc(C#N)c(C(F)(F)F)c5)C(=O)C4(C)C)cc3)cc2)C(C)(C)C)cc1", "note": "[Example 402]", "values": [{"measurement": "Dmax", "setting": "VCaP, read-out: VCaP Dmax (%)", "value": "51 to 70", "unit": "%"}, {"measurement": "DC50", "setting": "read-out: VCaP DC50; VCaP cells; Table 34", "value": "< 0.05", "unit": "µM"}]}, {"smiles": "Cc1ncsc1-c1ccc([C@H](C)NC(=O)[C@@H]2C[C@@H](O)CN2C(=O)[C@@H](NC(=O)CN[C@H]2C[C@@H](N3CCN(c4ccc(C(=O)N[C@H]5C(C)(C)[C@H](Oc6ccc(C#N)c(Cl)c6)C5(C)C)cn4)CC3)C2)C(C)(C)C)cc1", "note": "[Example 861, N-((1r,3R)-3-(3-chloro-4-cyanophenoxy)-2,2,4,4-tetramethylcyclobutyl)-6-(4-((1R,3S)-3-((2-(((S)-1-((2S,4R)-4-hydroxy-2-(((S)-1-(4-(4-methylthiazol-5-yl)phenyl)ethyl)carbamoyl)pyrrolidin-1-yl)-3,3-dimethyl-1-oxobutan-2-yl)amino)-2-oxoethyl)amino)cyclobutyl)piperazin-1-yl)nicotinamide]", "values": [{"measurement": "DC50", "setting": "[2]", "value": "< 0.05", "unit": "µM"}, {"measurement": "Dmax", "setting": "VCaP, read-out: VCaP Dmax (%)", "value": "51 to 70", "unit": "%"}]}, {"smiles": "CC(C)(C)[C@H](NC(=O)COCCCCCNc1ccc(C(=O)N[C@H]2C(C)(C)[C@H](Oc3ccc(C#N)c(Cl)c3)C2(C)C)cc1)C(=O)N1C[C@H](O)C[C@H]1C(=O)NCc1ccc(-c2scnc2C(=O)O)cc1", "note": "[Example 502]", "values": [{"measurement": "DC50", "setting": "[4]", "value": "0.051 to 0.5", "unit": "µM"}, {"measurement": "Dmax", "setting": "[1]", "value": "26 to 50", "unit": "%"}]}, {"smiles": "Cc1ncsc1-c1ccc([C@H](CO)NC(=O)[C@@H]2C[C@@H](O)CN2C(=O)[C@@H](NC(=O)CN2CCN(CC3CCN(c4ccc(C(=O)N[C@H]5C(C)(C)[C@H](Oc6ccc(C#N)c(Cl)c6)C5(C)C)cn4)CC3)CC2)C(C)(C)C)cc1", "note": "[Example 854, N-((1r,3r)-3-(3-chloro-4-cyanophenoxy)-2,2,4,4-tetramethylcyclobutyl)-6-(4-((4-(2-(((S)-1-((2S,4R)-4-hydroxy-2-(((R)-2-hydroxy-1-(4-(4-methylthiazol-5-yl)phenyl)ethyl)carbamoyl)pyrrolidin-1-yl)-3,3-dimethyl-1-oxobutan-2-yl)amino)-2-oxoethyl)piperazin-1-yl)methyl)piperidin-1-yl)nicotinamide]", "values": [{"measurement": "DC50", "setting": "[2]", "value": "< 0.05", "unit": "µM"}, {"measurement": "Dmax", "setting": "VCaP, read-out: VCaP Dmax (%)", "value": "> 71", "unit": "%"}]}, {"smiles": "Cc1ncsc1-c1ccc(C(NC(=O)[C@@H]2C[C@@H](O)CN2C(=O)C(NC(=O)COCCN2CCN(c3ccc(C(=O)N[C@H]4C(C)(C)[C@H](Oc5ccc(C#N)c(C(F)(F)F)c5)C4(C)C)cn3)CC2)C(C)(C)C)C2COC2)cc1", "note": "(stereo partly drawn) [Example 704, N-((1r,3r)-3-(4-cyano-3-(trifluoromethyl)phenoxy)-2,2,4,4-tetramethylcyclobutyl)-6-(4-(2-(2-(((S)-1-((2S,4R)-4-hydroxy-2-(((R)-(4-(4-methylthiazol-5-yl)phenyl)(oxetan-3-yl)methyl)carbamoyl)pyrrolidin-1-yl)-3,3-dimethyl-1-oxobutan-2-yl)amino)-2-oxoethoxy)ethyl)pipera-zin-1-yl)nicotinamide]", "values": [{"measurement": "DC50", "setting": "[2]", "value": "> 0.501", "unit": "µM"}, {"measurement": "Dmax", "setting": "[3]", "value": "< 25", "unit": "%"}]}, {"smiles": "Cc1ncsc1-c1ccc(CNC(=O)[C@@H]2C[C@@H](O)CN2C(=O)[C@@H](NC(=O)COCCNc2ccc(-c3ccc(C(=O)N[C@H]4C(C)(C)[C@H](Oc5ccc(C#N)c(Cl)c5)C4(C)C)cc3)cn2)C(C)(C)C)cc1", "note": "[Example 553]", "values": [{"measurement": "DC50", "setting": "[4]", "value": "< 0.05", "unit": "µM"}, {"measurement": "Dmax", "setting": "[1]", "value": "> 71", "unit": "%"}]}, {"smiles": "Cc1ncoc1-c1ccc([C@H](C)NC(=O)[C@@H]2C[C@@H](O)CN2C(=O)[C@@H](NC(=O)COCCCCOc2ccc(-c3ccc(N4C(=S)N(c5ccc(C#N)c(C(F)(F)F)c5)C(=O)C4(C)C)c(F)c3)cc2)C(C)(C)C)cc1", "note": "[Example 138, (2S,4R)-1-[(2S)-2-(2-{4-[4-(4-{3-[4-cyano-3-(trifluoromethyl)phenyl]-5,5-dimethyl-4-oxo-2-sulfanylideneimidazolidin-1-yl}-3-fluorophenyl)phen-oxy]butoxy}acetamido)-3,3-dimethylbutanoyl]-4-hydroxy-N-[(1S)-1-[4-(4-methyl-1,3-oxazol-5-yl)phenyl]ethyl]pyrrolidine-2-carboxamide]", "values": [{"measurement": "Dmax", "setting": "VCaP, read-out: VCaP Dmax (%)", "value": "> 71", "unit": "%"}, {"measurement": "DC50", "setting": "read-out: VCaP DC50; concentration that caused 50% Androgen Receptor degradation, VCaP cells (Table 32)", "value": "< 0.05", "unit": "µM"}]}]}
